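Where inhibition never reached the appropriate level, the endpoint shown equals the highest concentration tested. Otherwise, values were interpolated linearly from a five-concentration, 48-hour dose response in 96-well plates. At the GI50, growth is halved.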 The source made the active and inactive calls. No stated cut-off is given here; in the data, active = GI50 up to about 1.1 µM and inactive = higher.
Tests used:
Experiment in all cases: NCI anticancer screen, dose series, 48 h
M14 = system: M14
OVCAR-3 = system: OVCAR-3
NCI-H460 = system: NCI-H460
OVCAR-4 = system: OVCAR-4
SK-MEL-5 = system: SK-MEL-5
Malme-3M = system: Malme-3M
HL-60 = system: HL-60
LOX IMVI = system: LOX IMVI
NCI-H522 = system: NCI-H522
SW-620 = system: SW-620
DLD-1 = system: DLD-1
M19-MEL = system: M19-MEL
SR = system: SR
TK-10 = system: TK-10
SF-295 = system: SF-295
IGROV-1 = system: IGROV-1
XF498 = system: XF498
LXFL 529 = system: LXFL 529
SNB-78 = system: SNB-78
HCT-116 = system: HCT-116

Row | SMILES | GI50 (M14) | GI50 (OVCAR-3) | GI50 (NCI-H460) | GI50 (OVCAR-4) | GI50 (SK-MEL-5) | GI50 (Malme-3M) | GI50 (HL-60) | GI50 (LOX IMVI) | GI50 (NCI-H522) | GI50 (SW-620) | GI50 (DLD-1) | GI50 (M19-MEL) | GI50 (SR) | GI50 (TK-10) | GI50 (SF-295) | GI50 (IGROV-1) | GI50 (XF498) | GI50 (LXFL 529) | GI50 (SNB-78) | GI50 (HCT-116)
1 | C[n+]1ccn2c3nc4ccccc4nc3c([O-])c(C#N)c21 | > 100 µM (inactive) | > 100 µM (inactive) | > 10 µM (inactive) | > 100 µM (inactive) | > 4.65 µM (inactive) | > 100 µM (inactive) | > 100 µM (inactive) | > 100 µM (inactive) | > 10 µM (inactive) | > 100 µM (inactive) | < 0.01 µM (active) | < 0.01 µM (active) | > 100 µM (inactive) | > 10 µM (inactive) | > 100 µM (inactive) | > 31.4 µM (inactive) | > 100 µM (inactive) | > 100 µM (inactive) | > 100 µM (inactive) | > 100 µM (inactive)
2 | CCC(COC(=O)CC[C@@H](NC(=O)C(C)NC(=O)C(C)OC1C(O)C(CO)OC(OCc2ccccc2)C1NC(C)=O)C(N)=O)NC1c2ccccc2Nc2cccc([N+](=O)[O-])c21 (stereo not given in full) | > 100 µM (inactive) | 80.2 µM (inactive) | 54 µM (inactive) | > 100 µM (inactive) | > 100 µM (inactive) | > 100 µM (inactive) | > 100 µM (inactive) | > 100 µM (inactive) | > 100 µM (inactive) | > 100 µM (inactive) | > 100 µM (inactive) | > 100 µM (inactive) | > 100 µM (inactive) | > 100 µM (inactive) | > 100 µM (inactive) | > 100 µM (inactive) | > 100 µM (inactive) | 41.8 µM (inactive) | > 100 µM (inactive) | > 100 µM (inactive)

Reference: ChEMBL document CHEMBL1201862, “PubChem BioAssay data set” (2004)
